Values after ≈ are worked out from the molar mass of the structure shown.
Key:
in vitro [1] = conditions: human
HIV-1 Y181C = format: cell-based; conditions: MT-4 cells; CC50/EC50
Kunming mice = assay: Acute; format: in vivo; conditions: 800 mg/kg, 2 weeks, vs control group
HIV-1 F227L+V106A = format: cell-based; conditions: MT-4 cells; CC50/EC50
HIV-1 E138K = format: cell-based; conditions: MT-4 cells; CC50/EC50
[2] = test system: NNRTI-resistant strain K103N+Y181C (RES056); conditions: MT-4 cells
HIV-1 L100I = format: cell-based; conditions: MT-4 cells; CC50/EC50
HIV-1 K103N = format: cell-based; conditions: MT-4 cells; CC50/EC50
[3] = test system: HIV-1 strains carrying single NNRTI-resistant mutations; format: cell-based; conditions: EC50 mutant/EC50 WT
HIV-1 Y188L = format: cell-based; conditions: MT-4 cells; CC50/EC50
WT HIV-1 (IIIB) = conditions: MT-4 cells
in vitro [4] = conditions: human; remark: listed apart in the source
RES056 (K103N+Y181C) = conditions: read-out: EC50 RES056 (previously reported); cited from earlier work
[5] = cited from earlier work
mice = assay: Subacute toxicity with HE staining of organs; conditions: 50 mg/kg, heart, liver, spleen, lungs, kidneys
[6] = Aqueous solubility measured by HPLC; format: physicochemical; conditions: aqueous solution, pH 2

Row | Structure (SMILES) | CC50 (in vitro [1]) [µM] | SI Y181C (HIV-1 Y181C) | SI F227L+V106A (HIV-1 F227L+V106A) | SI E138K (HIV-1 E138K) | SI RES056 (CC50/EC50) [2] | SI L100I (HIV-1 L100I) | SI K103N (HIV-1 K103N) | SI Y188L (HIV-1 Y188L) | SI IIIB (CC50/EC50) (WT HIV-1 (IIIB)) | other results
1 | Cc1cc(C#N)cc(C)c1Oc1nc(N[C@@H]2CCN(Cc3cccc(C(N)=O)c3)C2)nc2ccsc12 [8c3, (R)-3-((3-((4-(4-Cyano-2,6-dimethylphenoxy)thieno[3,2-d]-pyrimidin-2-yl)amino)pyrrolidin-1-yl)methyl)benzamide] | > 0.25 |  |  |  |  |  |  |  |  | 
2 | Cc1cc(C#N)cc(C)c1Oc1nc(N[C@@H]2CCN(Cc3ccc(S(C)(=O)=O)cc3)C2)nc2ccsc12 [8c4, (R)-3,5-Dimethyl-4-((2-((1-(4-(methylsulfonyl)benzyl)pyrrolidin-3-yl)amino)thieno[3,2-d]pyrimidin-4-yl)oxy)benzonitrile] | > 0.234 |  |  |  |  |  |  |  |  | 
3 | Cc1cc(C#N)cc(C)c1Oc1nc(N[C@H]2CCN(Cc3ccc(S(N)(=O)=O)cc3)C2)nc2ccsc12 [8d1, (S)-4-((3-((4-(4-Cyano-2,6-dimethylphenoxy)thieno[3,2-d]-pyrimidin-2-yl)amino)pyrrolidin-1-yl)methyl)benzenesulfonamide] | > 0.233 |  |  |  |  |  |  |  |  | 
4 | Cc1cc(C#N)cc(C)c1Oc1nc(N[C@H]2CCN(Cc3ccncc3)C2)nc2ccsc12 [8d5, (S)-3,5-Dimethyl-4-((2-((1-(pyridin-4-ylmethyl)pyrrolidin-3-yl)amino)thieno[3,2-d]pyrimidin-4-yl)oxy)benzonitrile] | > 0.273 |  |  |  |  |  |  |  |  | 
5 | Cc1cc(C#N)cc(C)c1Oc1nc(NC2CCN(Cc3ccc(C(N)=O)cc3)CC2)nc2c1COC2 [13c2, 4-((4-((4-(4-Cyano-2,6-dimethylphenoxy)-5,7-dihydrofuro-[3,4-d]pyrimidin-2-yl)amino)piperidin-1-yl)methyl)benzamide] |  | > 56818 | > 13158 | > 35714 | >6039 | > 104167 | > 277778 | > 29762 | >156250 | behavior, acute toxicity (Kunming mice): no significant behavior abnormalities; resistance FC values range for single mutant strains [3]: 0.6–5.3
6 | Cc1cc(C#N)cc(C)c1Oc1nc(NC2CCN(Cc3ccc(S(N)(=O)=O)cc3)CC2)nc2c1CCC2 [13d1, 4-((4-((4-(4-Cyano-2,6-dimethylphenoxy)-6,7-dihydro-5H-cyclopenta[d]pyrimidin-2-yl)amino)piperidin-1-yl)methyl)benzenesulfonamide] |  | > 16447 | > 6579 | > 5543 | >9091 | > 39683 | > 21186 | > 16667 | >208333 | 
7 | Cc1cc(C#N)cc(C)c1Oc1nc(NC2CCN(Cc3ccc(S(N)(=O)=O)cc3)CC2)nc2c1SCCC2 [13f1, 4-((4-((4-(4-Cyano-2,6-dimethylphenoxy)-7,8-dihydro-6H-thiopyrano[3,2-d]pyrimidin-2-yl)amino)piperidin-1-yl)methyl)benzenesulfonamide] |  | ≥ 14250 | ≥ 6645 | ≥ 17435 | ≥3650 | ≥ 11488 | ≥ 28500 | ≥ 18525 | ≥54889 | 
8 | Cc1cc(C#N)cc(C)c1Oc1nc(NC2CCN(Cc3cccc(C(N)=O)c3)CC2)nc2c1SCCC2 [13f5, 3-((4-((4-(4-Cyano-2,6-dimethylphenoxy)-7,8-dihydro-6H-thiopyrano[3,2-d]pyrimidin-2-yl)amino)piperidin-1-yl)methyl)benzamide] |  |  |  |  |  |  |  |  |  | CC50 (in vitro [4]): > 4.59 µM
9 | Cc1cc(C#N)cc(C)c1Oc1nc(Nc2ccc(C#N)cc2)nc(N)c1Br [ETV, etravirine] |  |  |  |  |  |  |  |  |  | EC50 (RES056 (K103N+Y181C)): 0.017 µM; aqueous solubility (previously reported) [5]: less than 1 μg/mL; organ toxicity by HE staining (mice): alveolar interstitial thickening and alveolar hemorrhage (the blue arrow) in the lung and proximal convoluted tubule edema (the red circle) in the kidney; solubility [6]: 127 µg/mL (≈ 292 µM)
10 | Cc1cc(C#N)cc(C)c1Oc1nc(NC2CCN(Cc3ccc(S(N)(=O)=O)cc3)CC2)nc2ccsc12 [compound 3] |  |  |  |  |  |  |  |  |  | EC50 (RES056 (K103N+Y181C)): 0.0306 µM; aqueous solubility (previously reported) [5]: less than 1 μg/mL

— publication PMC7441537 (Journal of medicinal chemistry, 2019)
